Measured values reported in publication PMC9292215 (Clinical Pharmacology and Therapeutics, 2021).

Key:
[1] = Plasma pharmacokinetics of BIA 10-2474 and metabolites; assay type: in vivo, human
FAAH = molecular target: T1, FAAH (Homo sapiens, UniProt O00519); settings: cited from earlier work
T1 sequence (O00519 1-579): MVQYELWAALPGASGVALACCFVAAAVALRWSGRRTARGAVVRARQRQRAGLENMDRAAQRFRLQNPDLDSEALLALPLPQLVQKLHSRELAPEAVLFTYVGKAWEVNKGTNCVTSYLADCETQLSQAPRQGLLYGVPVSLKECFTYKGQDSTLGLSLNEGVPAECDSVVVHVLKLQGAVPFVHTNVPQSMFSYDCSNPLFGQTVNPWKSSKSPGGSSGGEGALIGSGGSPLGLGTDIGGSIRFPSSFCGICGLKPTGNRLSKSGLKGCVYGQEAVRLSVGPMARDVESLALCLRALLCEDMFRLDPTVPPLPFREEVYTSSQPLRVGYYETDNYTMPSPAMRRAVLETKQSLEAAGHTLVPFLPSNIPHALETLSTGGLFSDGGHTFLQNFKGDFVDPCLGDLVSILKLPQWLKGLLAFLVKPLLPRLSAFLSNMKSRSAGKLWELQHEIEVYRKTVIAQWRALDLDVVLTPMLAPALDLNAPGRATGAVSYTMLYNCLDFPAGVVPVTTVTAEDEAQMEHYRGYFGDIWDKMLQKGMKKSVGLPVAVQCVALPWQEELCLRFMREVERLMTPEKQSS

[2] = cited from earlier work
[3] = 20 mg BIA 10-2474 once daily, Day 1
[4] = 20 mg BIA 10-2474 once daily, Day 10
[5] = after single dose 40 mg BIA 10-2474
[6] = after single dose 100 mg BIA 10-2474
[7] = repeated dose levels below 20 mg for 10 days

AUC0–t of metabolite [1, 4]	Cmax of metabolite [1, 4]	tmax of metabolite [1, 4]	AUC0-t of metabolite [1, 5]	Cmax of metabolite [1, 5]	tmax of metabolite [1, 5]	AUC0-t of metabolite [1, 6]	Cmax of metabolite [1, 6]	tmax of metabolite [1, 6]	plasma abundance of metabolite [1, 7]	plasma abundance of metabolite ([1]; single dose levels below 40 mg)	SMILES	tested dose as multiple of the dose required for complete FAAH inhibition (FAAH)	further results
47.3 (20.6) ng⋅hour/mL	5.8 (1.7) ng/mL	1.0 (1.0–2.0) hour	59.2 (30.6) ng hour/mL	8.09 (30.7) ng/mL	2.0 (1.0–3.0) hour	206 (40.7) ng hour/mL	19.6 (29.1) ng/mL	2.0 (1.0–3.0) hour	undetectable	undetectable	CN(C(=O)n1cnc(-c2ccc[n+]([O-])c2)c1)[C@H]1CC[C@H](O)CC1 [BIA 10-2639, N-(trans-4-hydroxycyclohexyl)-N-methyl-4-(1-oxidopyridin-3-yl)l-1H-imidazole-1-carboxamide]		AUC0–t of metabolite [1, 3]: 21.8 (6.8) ng⋅hour/mL; AUC0–∞ of metabolite [1, 3]: 26.6 (8.5) ng⋅hour/mL; Cmax of metabolite [1, 3]: 4.1 (0.5) ng/mL; t1/2 of metabolite [1, 3]: 9.94 (1.79) h; tmax of metabolite [1, 3]: 1.0 (1.0–2.0) hour; t1/2 of metabolite [1, 5]: 9.78 (67.1) hour; AUC0-∞ of metabolite [1, 6]: 271 (35.6) ng hour/mL; t1/2 of metabolite [1, 6]: 9.20 (15.2) hour
									undetectable	undetectable	O=C(NC1CCCCC1)n1cnc(-c2ccc[n+]([O-])c2)c1 [BIA 10-2583]		
105 (64.7) ng⋅hour/mL	8.27 (3.42) ng/mL	4.0 (4.0–12.0) hour	51.3 (71.4) ng hour/mL	4.66 (44.7) ng/mL	12.0 (3.0–24.0) hour	303 (68.3) ng hour/mL	11.4 (27.1) ng/mL	12.0 (3.0–24.0) hour	undetectable	undetectable	CN(C(=O)n1cnc(-c2cccnc2)c1)C1CCCCC1 [BIA 10-2445]		
203 (197) ng⋅hour/mL	7.41 (3.9) ng/mL	4.0 (2.0–24.0) hour				359 (36.3) ng hour/mL	7.1 (30.9) ng/mL	18.0 (2.0–24.0) hour	undetectable	undetectable	CN(C(=O)n1cnc(-c2cccnc2)c1)[C@H]1CC[C@H](O)CC1 [BIA 10-2631, N-(trans-4-hydroxycyclohexyl)-N-methyl-4-pyridin-3-yl-1H-imidazole-1-carboxamide]		
											O=C(Nc1cccnn1)N1CCC(=Cc2cccc(Oc3ccc(C(F)(F)F)cn3)c2)CC1 [PF-04457845]	133 times	FAAH inhibition (FAAH; for 6 days or more): more than 90%
											O=C(Nc1cnccc1Cl)N1CCN(Cc2ccc3c(c2)OC(F)(F)O3)CC1 [JNJ-42165279]	at least 10 times	half-life [2]: 8 to 14 h; duration of FAAH inhibition (FAAH): > 24 h
